Measurements reported in the NIST ThermoML archive (doi:10.1016/j.jct.2013.05.046).
Numbers after ± are expanded uncertainties.

Columns and labels:
[1] = refractive index (Na D-line) (dimensionless); xn = mol fraction of the nth substance listed; details: 101 kPa, Liquid, Standard Abbe refractometry, x2 = 0.8
[2] = xn = mol fraction of the nth substance listed; details: 101 kPa, Liquid, Cone and plate viscometry, x2 = 0.8

For `CC[P+](c1ccccc1)(c1ccccc1)c1ccccc1.[I-]` [ethyltriphenylphosphonium iodide] + O=S1(=O)CCCC1, which refractive index ([1]; 298.15 K) is on record?
The refractive index was 1.516 ± 0.0004.

What about the refractive index ([1]; 303.15 K) of the same compound?
Its refractive index is 1.5142 ± 0.0004.

What about the refractive index ([1]; 313.15 K) of the same compound?
The refractive index was 1.5104 ± 0.0004.

What about the refractive index ([1]; 323.15 K) of the same compound?
The refractive index was 1.5069 ± 0.0004.

What about the refractive index ([1]; 333.15 K) of the same compound?
Its refractive index is 1.5033 ± 0.0004.

And the viscosity ([2]; 298.15 K)?
The viscosity was 95.03 ± 9.6 mPa·s.

And the viscosity ([2]; 308.15 K)?
The viscosity was 52.14 ± 5.3 mPa·s.

What about the viscosity ([2]; 318.15 K) of the same compound?
Its viscosity is 24.15 ± 2.4 mPa·s.

And the viscosity ([2]; 328.15 K)?
The viscosity was 15.24 ± 1.5 mPa·s.

And the viscosity ([2]; 338.15 K)?
The viscosity was 9.578 ± 0.97 mPa·s.
